# Test results as given in patent US9284303B2, “Benzimidazole cannabinoid agonists bearing a substituted heterocyclic group” (priority 2006, dated 2016).
# Where two headings read alike, the source gives them in different places.
# Assays:
# [1] = target: T1, human CB2 (hCB2) receptor (Homo sapiens, UniProt P34972); assay: Inhibition of forskolin-activated cAMP production upon activation of hCB2 (HTRF), CHO-K1 cells; assay type: cell-based; settings: for ratio CB2 agonism over CB1 agonism: Table C-1, selectivity hCB2 over hCB1; for ratio CB2 over CB1 agonism: Table C-3, comparison of art compounds A to E with compounds of the invention
# T1 construct: expressed in transfected cells; host or cells: CHO-K1
# [2] = target: T2, human CB1 (hCB1) receptor (Homo sapiens, UniProt P21554); assay: Inhibition of forskolin-activated cAMP production upon activation of hCB1 (HTRF), CHO-K1 cells; assay type: cell-based; settings: forskolin-activated cAMP, pEC50=-log(EC50); for EC50: CB1 pEC50, hCB1-CHO-K1 cells; for CB1 pEC50: hCB1-CHO-K1 cells
# T2 construct: expressed in transfected cells; host or cells: CHO-K1
# Outline: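 CHO-K1 cells stably expressing hCB1 (20,000/well) were in HBSS stimulation buffer (1 mM IBMX, 10 mM MgCl2, 0.1% BSA, pH 7.4), with 6 μM forskolin in the compound buffer, 30 min at room temperature in the dark. cAMP was read as HTRF 665/620 ratio, normalized to DMSO and CP55490. Outputs were pEC50 and inhibition at 10 μM relative to CP55490.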
# [3] = hCB2-CHO-K1 cells, forskolin-activated cAMP, pEC50=-log(EC50), read-out: CB2 pEC50 (converted)
# T1 sequence (P34972 whole entry): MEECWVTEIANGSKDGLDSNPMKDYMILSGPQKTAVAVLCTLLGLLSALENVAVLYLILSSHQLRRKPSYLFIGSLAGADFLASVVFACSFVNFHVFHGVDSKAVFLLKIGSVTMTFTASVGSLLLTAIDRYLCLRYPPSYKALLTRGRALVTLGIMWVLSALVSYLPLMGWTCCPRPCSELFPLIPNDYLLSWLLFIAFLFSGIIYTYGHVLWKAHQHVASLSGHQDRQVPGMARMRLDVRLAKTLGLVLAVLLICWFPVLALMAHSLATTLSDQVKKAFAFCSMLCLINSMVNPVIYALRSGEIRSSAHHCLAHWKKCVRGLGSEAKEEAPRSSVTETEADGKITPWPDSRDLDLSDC
# T2 sequence (P21554 whole entry): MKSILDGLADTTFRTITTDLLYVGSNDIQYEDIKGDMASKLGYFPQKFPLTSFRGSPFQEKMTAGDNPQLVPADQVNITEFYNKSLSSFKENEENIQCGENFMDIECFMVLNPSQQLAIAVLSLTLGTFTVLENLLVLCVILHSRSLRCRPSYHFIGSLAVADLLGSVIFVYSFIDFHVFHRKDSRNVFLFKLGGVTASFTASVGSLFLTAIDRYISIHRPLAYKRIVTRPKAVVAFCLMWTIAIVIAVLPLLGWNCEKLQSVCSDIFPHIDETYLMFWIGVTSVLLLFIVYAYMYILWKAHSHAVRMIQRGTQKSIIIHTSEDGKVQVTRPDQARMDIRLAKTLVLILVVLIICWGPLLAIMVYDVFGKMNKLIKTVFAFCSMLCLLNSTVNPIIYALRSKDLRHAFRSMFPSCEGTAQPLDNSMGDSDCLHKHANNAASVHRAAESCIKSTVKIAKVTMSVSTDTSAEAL
SMILES,melting point,ratio CB2 agonism over CB1 agonism [1],"EC50 [1, 3]",EC50 [2],ratio CB2 over CB1 agonism [1],"CB2 pEC50 ([1]; hCB2-CHO-K1 cells, forskolin-activated cAMP, pEC50=-log(EC50))",CB1 pEC50 [2],"EC50 ([1]; CB2 pEC50, hCB2-CHO-K1 cells, forskolin-activated cAMP, pEC50=-log(EC50))",ratio CB2 agonism over CB1 agonism ([1]; listed as 57)
CC(C)(C)c1nc2cc(S(=O)(=O)c3ncccc3C#N)ccc2n1CC1CCOCC1 [Co. No. 104],100 to 105 °C,117,0.741 nM,87.1 nM,,,,,
CC(C)(C)c1nc2cc(S(=O)(=O)c3cccc(C#N)n3)ccc2n1CC1CCOCC1 [Co. No. 98],224.5 to 226.7 °C,794,0.955 nM,741 nM,,,,,
CC(C)(C)c1nc2cc(S(=O)(=O)c3ccc(C(F)(F)F)cn3)ccc2n1CC1CCOCC1 [Co. No. 99],140.5 to 142.3 °C,700,1.32 nM,933 nM,,,,,
CC(C)(C)c1nc2cc(S(=O)(=O)c3c(Cl)cncc3Cl)ccc2n1CC1CCOCC1 [Co. No. 84],242.9 °C,490,1.26 nM,617 nM,,,,,
CC(C)(C)c1nc2cc(S(=O)(=O)c3ccn(CC(F)(F)F)c(=O)c3)ccc2n1CC1CCOCC1 [Co. No. 97],152.9 °C,2065,1.86 nM,3890 nM,,,,,
COc1cc(S(=O)(=O)c2ccc3c(c2)nc(C(C)(C)C)n3CC2CCOCC2)c(F)cn1 [Co. No. 72],139.6 to 140.2 °C,1525,0.676 nM,1020 nM,,,,,
CC(C)(C)c1nc2cc(S(=O)(=O)c3coc(C4OCCO4)c3)ccc2n1CC1CCOCC1 [Co. No. 55],141 °C,363,2.29 nM,832 nM,,,,,
COC(=O)c1cc(C)c(S(=O)(=O)c2ccc3c(c2)nc(C(C)(C)C)n3CC2CCOCC2)s1 [Co. No. 81],185.8 °C,2138,0.501 nM,1070 nM,,,,,
CC(C)(C)c1nc2cc(S(=O)(=O)c3cc(O)ncc3F)ccc2n1CC1CCOCC1 [Co. No. 82],291.8 to 294.6 °C,407,3.89 nM,1580 nM,,,,,
CC(C)(C)c1nc2cc(S(=O)(=O)c3ccc(C4(C)OCCO4)cn3)ccc2n1CC1CCOCC1 [Co. No. 45],191 °C,>3311,3.02 nM,> 10000 nM,,,,,
Cn1cc(S(=O)(=O)c2ccc3c(c2)nc(C(C)(C)C)n3CC2CCN(C=O)CC2)cn1 [Co. No. 156],213.9 °C,617,4.07 nM,2510 nM,,,,,
CC(C)(C)c1nc2cc(S(=O)(=O)c3ccc(S(C)(=O)=O)nc3)ccc2n1CC1CCOCC1 [Co. No. 56],150 to 160 °C,>3802,2.63 nM,> 10000 nM,,,,,
CC(=O)c1ccc(S(=O)(=O)c2ccc3c(c2)nc(C(C)(C)C)n3CC2CCOCC2)nc1 [Co. No. 4],> 120 °C,1679,1.91 nM,3240 nM,1679,,,,
CC(C)(C)c1nc2cc(S(=O)(=O)c3cncc(C#N)c3)ccc2n1CC1CCOCC1 [Co. No. 43],240 °C,1622,1 nM,1620 nM,,,,,
CC(C)(C)c1nc2cc(S(=O)(=O)c3ccc(C#N)nc3)ccc2n1CC1CCOCC1 [Co. No. 51],228 °C,73,1.23 nM,89.1 nM,,,,,
CC(C)(C)c1nc2cc(S(=O)(=O)c3ccnc(F)c3)ccc2n1C[C@H]1CC[C@H](O)CC1 [Co. No. 146],163.6 °C,>3981,2.51 nM,> 10000 nM,,,,,
CC(=O)NCCc1cc(S(=O)(=O)c2ccc3c(c2)nc(C(C)(C)C)n3CC2CCOCC2)ccn1 [Co. No. 158],160.3 °C,5888,,,,8.85,5.08,,
CC(C)(C)Cn1c(C(C)(C)C)nc2cc(S(=O)(=O)c3ccnc(F)c3)ccc21 [Co. No. 127],135.4 °C,6026,,> 10000 nM,,,,1.66 nM,
CC(=O)N1CCC(Cn2c(C(C)(C)C)nc3cc(S(=O)(=O)c4ccc(C#N)s4)ccc32)CC1 [Co. No. 159],181.2 °C,>4677,2.14 nM,> 10000 nM,,,,,
Cc1oc(S(=O)(=O)c2ccc3c(c2)nc(C(C)(C)C)n3CC2CCOCC2)cc1S(C)(=O)=O [Co. No. 68],204 to 205 °C,116,3.09 nM,363 nM,,,,,

SMILES,melting point,ratio CB2 agonism over CB1 agonism [1],"EC50 [1, 3]",EC50 [2],ratio CB2 over CB1 agonism [1],"CB2 pEC50 ([1]; hCB2-CHO-K1 cells, forskolin-activated cAMP, pEC50=-log(EC50))",CB1 pEC50 [2],"EC50 ([1]; CB2 pEC50, hCB2-CHO-K1 cells, forskolin-activated cAMP, pEC50=-log(EC50))",ratio CB2 agonism over CB1 agonism ([1]; listed as 57)
COCCNC(=O)c1ccc(S(=O)(=O)c2ccc3c(c2)nc(C(C)(C)C)n3CC2CCCCC2)nc1 [Co. No. 37],206 to 207 °C,>10839,0.933 nM,> 10000 nM,,,,,
CC(C)(C)c1nc2cc(S(=O)(=O)c3ccc(S(C)(=O)=O)nc3)ccc2n1CC1CCCCC1 [Co. No. 27],200 °C,>14125,0.708 nM,> 10000 nM,,,,,
CC(C)(C)c1nc2cc(S(=O)(=O)c3ccc(S(=O)(=O)N4CCOCC4)cn3)ccc2n1CC1CCOCC1 [Co. No. 66],224 °C,>676,14.8 nM,> 10000 nM,,,,,
CC(C)(C)c1nc2cc(S(=O)(=O)c3ccc(S(C)(=O)=O)s3)ccc2n1CC1CCOCC1 [Co. No. 57],216 °C,,1.1 nM,1450 nM,,,,,1328
CC(C)(C)c1nc2cc(S(=O)(=O)c3cc(C(F)(F)F)ccn3)ccc2n1CC1CCOCC1 [Co. No. 105],139.5 to 141 °C,295,1.58 nM,479 nM,,,,,
CC(C)(C)c1nc2cc(S(=O)(=O)c3ccnc(F)c3)ccc2n1CCN1CCCC1 [Co. No. 144],115.5 °C,>3090,3.24 nM,> 10000 nM,,,,,
CC(=O)NCc1ccc(S(=O)(=O)c2ccc3c(c2)nc(C(C)(C)C)n3CC2CCOCC2)cn1 [Co. No. 117],199.4 °C,219,4.47 nM,977 nM,,,,,
COC(=O)c1ccc(S(=O)(=O)c2ccc3c(c2)nc(C(C)(C)C)n3CC2CCOCC2)nc1 [Co. No. 30],195 to 197 °C,3055,1.7 nM,5250 nM,,,,,
CC(=O)N1CCC(Cn2c(C(C)(C)C)nc3cc(S(=O)(=O)c4cnn(C)c4)ccc32)CC1 [Co. No. 168],166.2 °C,>1230,8.13 nM,> 10000 nM,,,,,
CC(C)(C)c1nc2cc(S(=O)(=O)c3cc(Cl)cc(Cl)n3)ccc2n1CC1CCOCC1 [Co. No. 10],137.43 °C,12883,0.741 nM,9550 nM,12883,,,,
COCCCNc1cc(S(=O)(=O)c2ccc3c(c2)nc(C(C)(C)C)n3CC2CCOCC2)ccn1 [Co. No. 126],148.3 °C,1129,0.851 nM,,,,6.02,,
CC(C)(C)c1nc2cc(S(=O)(=O)c3sc(S(=O)(=O)N4CCOCC4)cc3Br)ccc2n1CC1CCOCC1 [Co. No. 65],230 °C,>3388,2.95 nM,> 10000 nM,,,,,
CC(C)(C)c1nc2cc(S(=O)(=O)c3ccnc(OCC(F)(F)F)c3)ccc2n1CC1CCOCC1 [Co. No. 23],166.7 °C,398,1.02 nM,407 nM,398,,,,
CC(C)(C)c1nc2cc([S+]([O-])c3c(Cl)cncc3Cl)ccc2n1CC1CCOCC1 (stereo not shown) [Co. No. 85],192.9 °C,891,0.933 nM,832 nM,,,,,
CC(C)(C)Cc1nc2cc(S(=O)(=O)c3cc[n+]([O-])cc3)ccc2n1CC1CCOCC1 [Co. No. 103],259.7 °C,,7.08 nM,2090 nM,,,,,
CN(C)CCCOc1cc(S(=O)(=O)c2ccc3c(c2)nc(C(C)(C)C)n3CC2CCOCC2)ccn1 [Co. No. 129],119.4 °C,617,15.5 nM,9550 nM,,,,,
CC(=O)Nc1cc(S(=O)(=O)c2ccc3c(c2)nc(C(C)(C)C)n3CC2CCOCC2)cc[n+]1[O-] [Co. No. 96],247.2 °C,,2 nM,> 10000 nM,,,,,
CC(=O)NCCNc1cc(S(=O)(=O)c2ccc3c(c2)nc(C(C)(C)C)n3CC2CCOCC2)ccn1 [Co. No. 123],217.2 °C,>2399,4.17 nM,> 10000 nM,,,,,
CC(=O)NCCOc1cc(S(=O)(=O)c2ccc3c(c2)nc(C(C)(C)C)n3CC2CCOCC2)ccn1 [Co. No. 121],182.3 °C,912,3.09 nM,2820 nM,,,,,
